Experimental data published in ChEMBL document CHEMBL2401653, “Synthesis, structure-property relationships and pharmacokinetic evaluation of ethyl 6-aminonicotinate sulfonylureas as antagonists of the P2Y₁₂ receptor” (Eur J Med Chem, 2013).
Converted amounts (≈) assume the structure as drawn.

Assays:
[1] = Stability of the compound in MeCN assessed as compound remaining at room temperature; assay type: physicochemical
[2] = 1-octanol-phosphate buffer distribution coefficient, log D of the compound at pH 7.4 after 2 days by shake flask method; assay type: physicochemical
[3] = Aqueous solubility of the compound; assay type: physicochemical; conditions: buffer
[4] = molecular target: T1, P2Y purinoceptor 12 (Homo sapiens, UniProt Q9H244)
T1 sequence (Q9H244 whole entry): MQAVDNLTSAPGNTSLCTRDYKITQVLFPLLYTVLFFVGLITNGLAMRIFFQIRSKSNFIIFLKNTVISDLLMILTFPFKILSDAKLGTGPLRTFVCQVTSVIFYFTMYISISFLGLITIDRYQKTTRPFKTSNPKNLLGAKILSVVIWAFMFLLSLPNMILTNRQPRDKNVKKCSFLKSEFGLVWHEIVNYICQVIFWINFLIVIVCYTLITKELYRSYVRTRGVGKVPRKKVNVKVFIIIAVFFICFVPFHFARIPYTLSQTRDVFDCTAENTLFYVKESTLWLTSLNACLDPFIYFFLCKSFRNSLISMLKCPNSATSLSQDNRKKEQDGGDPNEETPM
Description: Displacement of [125I]-AZ11931285 from P2Y12 receptor (unknown origin) after 1 hr by scintillation counting analysis

[5] = physchem; conditions: HBSS buffer, pH 6.8
Description: Kinetic solubility in HBSS buffer at pH 6.8 after 16 hrs by LC-UV/MS analysis

[6] = molecular target: T1, P2Y purinoceptor 12; remark: listed apart in the source
[7] = test system: Liver microsomes; assay: Intrinsic clearance in rat liver microsomes at 1 umol/L by LC/MS analysis in presence of NADPH; assay type: ADME, Microsome; conditions: 1 µM
[8] = Apparent Permeability across apical to basolateral side in human Caco2 cells at 1 to 10 uM measured at 30 to 90 mins by LC/MS analysis; assay type: ADME, cell-based; conditions: Caco-2
[9] = test system: Liver microsomes; assay: Intrinsic clearance in human liver microsomes at 1 umol/L by LC/MS analysis in presence of NADPH; assay type: ADME, Microsome; conditions: 1 µM
[10] = test system: Liver microsomes; assay: Metabolic stability in human liver microsomes at 1 umol/L by LC/MS analysis in absence of NADPH; assay type: ADME, Microsome; conditions: 1 µM
[11] = test system: Liver microsomes; assay: Metabolic stability in rat liver microsomes at 1 umol/L by LC/MS analysis in absence of NADPH; assay type: ADME, Microsome; conditions: 1 µM
[12] = Fraction unbound in human plasma; assay type: ADME, cell-free
[13] = Half life in iv dosed rat; assay type: ADME, organism-based; conditions: in vivo
[14] = Clearance in iv dosed rat; assay type: ADME, organism-based; conditions: in vivo
[15] = Oral bioavailability in rat; assay type: ADME, organism-based; conditions: in vivo
[16] = Half life in po dosed rat; assay type: ADME, organism-based; conditions: in vivo
[17] = test system: Plasma; assay: Metabolic stability in rat plasma by HRMS analysis; assay type: ADME, cell-free
[18] = Stability of the compound in EtOH at room temperature after 21 days by LC/MS analysis; assay type: physicochemical; conditions: 504 h
[19] = Stability of the compound in MeCN at room temperature after 21 days by LC/MS analysis; assay type: physicochemical; conditions: 504 h
[20] = physchem; conditions: HBSS buffer, pH 7.4
Description: Kinetic solubility in HBSS buffer at pH 7.4 after 16 hrs by LC-UV/MS analysis

SMILES	Stability [1]	logD at 48 h [2]	solubility [3] [µM]	IC50 [4] [nM]	solubility kinetic at 16 h [5] [µM]	IC50 [6] [nM]	Intrinsic clearance [7] [µL/min/mg]	Papp A→B at up to 10 µM [8] [×10⁻⁶ cm/s]	Intrinsic clearance (CLint) [9] [µL/min/mg]	Stability [10]	Stability [11]	fraction unbound [12]	half-life [13] [h]	clearance [14] [mL/min/kg]	bioavailability [15] [%]	half-life [16] [h]	Stability [17]	Stability [18]	Stability [19]	solubility kinetic at 16 h [20] [µM]
CCOC(=O)c1cc(C#N)c(N2CCN(C(=O)Nc3ccccc3)CC2)nc1C(F)(F)F	Stable	5	< 0.1	–	–	–	–	–	–	–	–	–	–	–	–	–	–	–	–	–
CCOC(=O)c1cc(C#N)c(N2CCN(C(=O)NCCc3cccs3)CC2)nc1C(F)(F)F	Stable	5	–	1300	15 (≈ 7.22 µg/mL)	510	–	–	–	–	–	–	–	–	–	–	–	–	–	–
CCOC(=O)c1cc(C#N)c(N2CCN(C(=O)NS(=O)(=O)c3ccccc3)CC2)nc1C(F)(F)F	Stable	–	–	170	–	220	> 104	0.6	> 70	Stable	Stable	–	–	–	–	–	–	–	–	–
CCOC(=O)c1cnc(N2CCN(C(=O)NS(=O)(=O)c3ccc(Cl)s3)CC2)c(Cl)c1	Stable	0.9	–	90	–	100	> 104	0.11	> 70	Stable	Stable	< 0.015	0.92	36	15	2.4	Unstable	–	–	–
CCOC(=O)c1cnc(N2CCN(C(=O)NS(=O)(=O)c3ccc(Cl)cc3)CC2)c(Cl)c1	Stable	1.3	–	520	–	380	> 104	1.2	> 70	–	–	–	–	–	–	–	–	Unstable	Stable	–
CCOC(=O)c1cnc(N2CCN(C(=O)NS(=O)(=O)c3ccc(F)cc3)CC2)c(Cl)c1	Stable	0.6	–	370	–	470	> 104	0.54	> 70	–	–	–	–	–	–	–	–	–	–	–
CCOC(=O)c1cc(C#N)c(N2CC(NC(=O)NS(=O)(=O)c3ccc(Cl)s3)C2)nc1C	Stable	0.8	83 (≈ 40.2 µg/mL)	–	–	–	> 104	0.11	–	–	–	–	–	–	–	–	–	–	–	–
CCOC(=O)c1cnc(N2CC(NC(=O)NS(=O)(=O)c3ccccc3)C2)c(Cl)c1	Stable	0.8	–	430	–	380	–	3.9	–	Stable	Stable	< 0.015	0.17	29	20	2.1	Unstable	Stable	Stable	–
CCOC(=O)c1cc(C#N)c(N2CC(NC(=O)NS(=O)(=O)c3ccccc3)C2)nc1C	Stable	0.4	–	62	–	190	< 19	0.41	< 13	–	–	< 0.015	1.7	13	39	9	Unstable	–	–	–
CCOC(=O)c1cc(C#N)c(N2CC(NC(=O)NS(=O)(=O)Cc3ccccc3)C2)nc1C	Stable	1.1	–	79	–	82	–	1.2	–	–	–	< 0.015	0.55	31	3	1.3	Unstable	–	–	–
CCOC(=O)c1cc(C#N)c(N2CCC(NC(=O)NS(=O)(=O)c3ccc(Cl)s3)CC2)nc1C	Stable	1.6	–	27	–	57	> 104	6.9	> 70	–	–	–	–	–	–	–	–	–	–	–
CCOC(=O)c1cnc(N2CCC(NC(=O)NS(=O)(=O)c3ccccc3)CC2)c(Cl)c1	Stable	1.5	–	4800	–	3200	–	–	–	–	–	–	–	–	–	–	–	Unstable	Stable	–
CCOC(=O)c1cc(C#N)c(N2CCC(NC(=O)NS(=O)(=O)c3ccc(Cl)cc3)CC2)nc1C	Stable	2.1	–	190	–	260	> 104	19	> 70	–	–	–	–	–	–	–	–	–	–	–
CCOC(=O)c1cc(C#N)c(N2CCN(C(=O)NS(=O)(=O)c3ccc(Cl)s3)CC2)nc1C	Stable	1	90 (≈ 44.8 µg/mL)	42	–	34	> 104	0.058	> 70	Stable	Stable	–	–	–	–	–	–	–	–	–
CCOC(=O)c1cc(C#N)c(N2CCN(C(=O)NS(=O)(=O)c3ccccc3)CC2)nc1C	Stable	–	–	140	–	130	–	0.3	–	Stable	Stable	–	–	–	–	–	–	–	–	–
CCOC(=O)c1cc(C#N)c(N2CCN(C(=O)NS(=O)(=O)Cc3ccccc3)CC2)nc1C	Stable	0.9	–	33	–	54	> 104	0.37	< 13	–	–	–	–	–	–	–	–	–	–	–
CCOC(=O)c1cnc(N2CCN(C(=O)NS(=O)(=O)c3ccccc3)CC2)c(Cl)c1	Stable	–	–	180	100 (≈ 45.3 µg/mL)	220	> 104	0.28	> 70	Stable	Stable	–	–	–	–	–	–	–	–	–
CCOC(=O)c1cnc(N2CCN(C(=O)NS(=O)(=O)c3ccccc3C)CC2)c(Cl)c1	Stable	–	–	150	–	260	> 104	–	> 70	–	–	–	–	–	–	–	–	–	–	210 (≈ 98.1 µg/mL)
CCOC(=O)c1cc(C#N)c(N2CCN(C(=O)NS(=O)(=O)c3ccc(Cl)s3)C(CCC(=O)O)C2)nc1C(F)(F)F (racemic)	Stable	–	–	95	–	110	> 104	0.19	< 13	–	–	< 0.015	0.62	46	0.83	4	Unstable	–	–	–
CCOC(=O)c1cc(C#N)c(N2CCN(C(=O)NS(=O)(=O)c3ccc(Cl)s3)CC2C)nc1C (racemic)	Stable	1.6	–	64	–	37	> 104	0.31	> 70	–	–	–	–	–	–	–	–	–	–	–
CCOC(=O)c1cnc(N2CCN(C(=O)Nc3ccccc3)CC2CCC(=O)O)c(Cl)c1 (racemic)	Stable	–	–	680	96 (≈ 44.2 µg/mL)	2200	–	–	–	–	–	–	–	–	–	–	–	–	–	–
